The record followed here is patent US12396971B2, “Administration of beta-hydroxybutyrate and related compounds in humans for the treatment and/or prevention of respiratory illnesses” (AXCESS GLOBAL SCIENCES, LLC, priority 2020, dated 2025).

Each structure is given as a SMILES string.

What all share (assay type): in vivo, humans
Experiment [1] has as its system respiratory illness, COVID-19. In words: Symptoms and recovery monitoring in individuals with COVID-19 administered R-beta-hydroxybutyrate. As to conditions: composition comprising 10 g twice a day. How it is done:
(§1) A composition comprising 10 g of R-beta-hydroxybutyrate was administered to individuals twice a day. […] The patients were tested and monitored to determine the impact of administration of beta-hydroxybutyrate on the illness progression and recovery. Administration of the beta-hydroxybutyrate reduced the number of symptoms and the severity of symptoms. […] Since quicker returns to normal values may indicate less chances for long-term continuance of viral respiratory illnesses (e.g., long-haul or long-term Covid-19), administration of beta-hydroxybutyrate may be associated with decreased potential for long-term continuance of symptoms.

Experiment [2] deals with respiratory illness, COVID-19. In words: Cardiovascular endurance, standard 15 minute cycling test over 4 days. To be noted: 10 g vs not administered, FIG. 3. Here is the method: as §1
FIG. 3 graphically illustrates endurance capacity monitoring in individuals over 4 days for individuals administered 10 g of R-beta-hydroxybutyrate and not administered 10 g of R-beta-hydroxybutyrate. Cardiovascular endurance was measured using a standard 15 minute cycling test and is illustrated in FIG. 3 as a percentage of normal.

Experiment [3] relates to respiratory illness, COVID-19. In words: Lung function (FEV) measurements over 4 days. To be noted: FIG. 2. How it is done: as §1
FIG. 2 graphically illustrates lung function measurements over 4 days for individuals administered 10 g of R-beta-hydroxybutyrate and not administered 10 g of R-beta-hydroxybutyrate. […] As illustrated, improvement in FEV plateaued when beta-hydroxybutyrate was not administered while it continued to improve when R-beta-hydroxybutyrate was administered. Reduction in the chances of plateauing lung function (e.g., at reduced levels) may decrease potential for long-term continuance of symptoms such as those found in long term or long-haul COVID-19 sufferers (e.g., individuals who had COVID-19 and continue to present with symptoms 4 or more weeks after infection).

Experiment [4] relates to respiratory illness, COVID-19. In words: Cough severity by Cough Severity Visual Analogue Scale over 4 days. To be noted: 10 g, orally, vs not administered, FIG. 1. Here is the method:
as §1
FIG. 1 graphically illustrates cough measured over 4 days for individuals administrated 10 g of R-beta-hydroxybutyrate and not administered 10 g of R-beta-hydroxybutyrate. Cough severity was measured using the Cough Severity Visual Analogue Scale. As illustrated, cough severity was lower with administration of 10 g of R-beta-hydroxybutyrate. Furthermore, cough severity was not as high when beta-hydroxybutyrate was orally administered.

On to `C[C@@H](O)CC(=O)O` [R-beta-hydroxybutyrate, (R)-3-Hydroxybutyric acid], for which, in experiment [1], the number of symptoms result is “reduced”, the recovery time entry was “decreased” and the severity of symptoms result was “reduced”. Further, in experiment [2], the “cardiovascular endurance as a percentage of normal” value is listed as “overall better” and the “recovery to normal cardiovascular endurance” value is recorded as “quicker recovery to normal”. In experiment [3] (10 g vs not administered (FEV plateaued without)), the “time for lung function to improve to normal” value is “improve to normal more quickly”. In addition, in experiment [3] (10 g vs not administered), the “FEV (as a % of normal FEV)” value is “higher overall”. Moreover, the “cough severity (Cough Severity Visual Analogue Scale)” value in experiment [4] is “lower”.
